# Legend:
# Format in all cases: in vivo
# [1] = tested on: corn (Krasnodar 385 MV variety); assay: Corn seed treatment with BHMPA salts: germination energy and germination rate
# Experimental: (§1) Control—Soaking Seeds in Water;
# (§2) Experimental versions—soaking seeds in BHMPA solutions and solutions of BHMPA Ca, Mg, Na, Co, Mn, Cu, and Zn salts at 1·10^−6-1·10^−12% concentrations (doses). The studies were conducted in laboratory in Petri dishes; seed bed—two layers of filter paper. 50 seeds soaked in water (control) and in the solutions of the tested compounds (experimental) were placed into each dish. Wheat, corn, and rice seeds were exposed for one hour.
# (§3) Analysis was conducted according to the government standards GOST 12038-84 “Crop seeds. Technical conditions for determining the germination energy and germination rate”, GOST 12044-93 “Crop seeds. Methods for determining disease contamination.”
# (§4) Seed germination energy and rate were calculated in percent as an arithmetic mean of the four experimental results (germination energy on the 4th day, wheat germination on the 8th day, rice and corn germination—on the 7th day). Germination was determined based on the germinating power indicators (length of the roots and sprouts and their wet and dry mass per 100 shoots).
# (§5) The effect of pre-sowing seed treatment with the claimed BHMPA salts of biogenic metals was studied on winter wheat (Vershin variety), corn (Krasnodar 385 MV variety), and rice (Diamant variety).
# rice (Diamant variety) = assay: Rice seed treatment with BHMPA salts: germination energy and germination rate
# Experimental: as §1, §2, §3, §4, §5
# [2] = tested on: corn (Krasnodar 385 MV variety); assay: Corn seed treatment with BHMPA salts: germinating power
# Experimental: as §2, §4, §5
# The above data describe the seed viability only at the initial stage of germination, while the germination ability at the later stage of germination is defined by the initial germinating power. The method for the determination of the germinating power comprises measuring the height of the sprouts and primary roots, as well as the biomass and the dry mass thereof per 100 seedlings. [M. A. Kartuzova. Initial Germinating Power as Method of Biological Assessment of Seed Quality. Selection and Seed Farming, #2, 1953].
# [3] = comparative study vs Melaphen, 1·10^−10% solution
# [4] = rice seed treatment, solution 1 · 10^−9%
# [5] = seed treatment, concentration 1 · 10^−6%
# [6] = seed treatment, concentration 1 · 10^−7%
# [7] = seed treatment, concentration 1 · 10^−8%
# [8] = seed treatment, concentration 1 · 10^−9%
# [9] = seed treatment, concentration 1 · 10^−10%
# [10] = seed treatment, concentration 1 · 10^−11%
# [11] = seed treatment, concentration 1 · 10^−12%
# [12] = corn seeds, solution concentration 1 · 10^−10%
compound,measurement,setting,value
"O=P([O-])(CO)CO.O=P([O-])(CO)CO.[Ca+2] [Ca-salt, Calcium BHMPA Salt]",Germination energy,[1]; 1·10^−6% solution,74.3%
same,Germination rate,[1]; 1·10^−6% solution,77.0%
same,Germination energy,[1]; 1·10^−7% solution,77.3%
same,Germination rate,[1]; 1·10^−7% solution,82.0%
same,Germination energy,[1]; 1·10^−8% solution,81.8%
same,Germination rate,[1]; 1·10^−8% solution,84.2%
same,Germination energy,[1]; 1·10^−9% solution,85.0%
same,Germination rate,[1]; 1·10^−9% solution,87.7%
same,Germination energy,[1]; 1·10^−10% solution,87.8%
same,Germination rate,[1]; 1·10^−10% solution,90.0%
same,Germination energy,[1]; 1·10^−11% solution,85.5%
same,Germination rate,[1]; 1·10^−11% solution,88.3%
same,Germination energy,[1]; 1·10^−12% solution,82.3%
same,Germination rate,[1]; 1·10^−12% solution,85.0%
same,Germination energy,[1]; [3],85.0%
same,Germination rate,[1]; [3],95.3%
same,"Germination energy, %",rice (Diamant variety); [4],86.3%
same,"Germination rate, %",rice (Diamant variety); [4],93.3%
same,Germination energy,"rice (Diamant variety); rice, 1·10^−10% solution",85.0%
same,Germination rate,"rice (Diamant variety); rice, 1·10^−10% solution",92.0%
same,Germination energy,rice (Diamant variety); [5],75.9%
same,Germination rate,rice (Diamant variety); [5],81.0%
same,Germination energy,rice (Diamant variety); [6],76.0%
same,Germination rate,rice (Diamant variety); [6],83.3%
same,Germination energy,rice (Diamant variety); [7],79.3%
same,Germination rate,rice (Diamant variety); [7],85.0%
same,Germination energy,rice (Diamant variety); [8],82.0%
same,Germination rate,rice (Diamant variety); [8],87.0%
same,Germination energy,rice (Diamant variety); [9],85.0%
same,Germination rate,rice (Diamant variety); [9],92.0%
same,Germination energy,rice (Diamant variety); [10],83.3%
same,Germination rate,rice (Diamant variety); [10],89.3%
same,Germination energy,rice (Diamant variety); [11],78.3%
same,Germination rate,rice (Diamant variety); [11],84.3%
same,optimum concentration for treating corn seeds before sowing,[2]; corn,1·10^−10%
same,"Length, root",[2]; [12],6.6 cm
same,"Length, root, + % to control",[2]; [12],12%
same,"Length, sprout",[2]; [12],3.2 cm
same,"Length, sprout, + % to control",[2]; [12],18.5%
same,"Mass, dry, root",[2]; [12],2.03 g/100 plantlings
same,"Mass, dry, root, + % to control",[2]; [12],15%
same,"Mass, dry, sprout",[2]; [12],1.47 g/100 plantlings
same,"Mass, dry, sprout, + % to control",[2]; [12],8%
same,"Mass, wet, root",[2]; [12],9.63 g/100 plantlings
same,"Mass, wet, root, + % to control",[2]; [12],10%
same,"Mass, wet, sprout",[2]; [12],8.59 g/100 plantlings
same,"Mass, wet, sprout, + % to control",[2]; [12],21%
same,"Length, root","[2]; corn, 1·10^−6% solution",4.2 cm
same,"Length, root, + % to control","[2]; corn, 1·10^−6% solution",−7%
same,"Length, sprout","[2]; corn, 1·10^−6% solution",2.5 cm
same,"Length, sprout, + % to control","[2]; corn, 1·10^−6% solution",−4%
same,"Mass, dry, root","[2]; corn, 1·10^−6% solution",1.09 g/100 plantlings
same,"Mass, dry, root, + % to control","[2]; corn, 1·10^−6% solution",−2%
same,"Mass, dry, sprout","[2]; corn, 1·10^−6% solution",0.63 g/100 plantlings
same,"Mass, dry, sprout, + % to control","[2]; corn, 1·10^−6% solution",−9%
same,"Mass, wet, root","[2]; corn, 1·10^−6% solution",7.30 g/100 plantlings
same,"Mass, wet, root, + % to control","[2]; corn, 1·10^−6% solution",−2.5%
same,"Mass, wet, sprout","[2]; corn, 1·10^−6% solution",4.21 g/100 plantlings
same,"Mass, wet, sprout, + % to control","[2]; corn, 1·10^−6% solution",−6%
same,difference from the control in germinating power,"[2]; corn, 1·10^−6%, 1·10^−7% and 1·10^−12% solutions",rather insignificant
same,"Length, root","[2]; corn, 1·10^−7% solution",4.6 cm
same,"Length, root, + % to control","[2]; corn, 1·10^−7% solution",2%
same,"Length, sprout","[2]; corn, 1·10^−7% solution",2.7 cm
same,"Length, sprout, + % to control","[2]; corn, 1·10^−7% solution",4%
same,"Mass, dry, root","[2]; corn, 1·10^−7% solution",1.20 g/100 plantlings
same,"Mass, dry, root, + % to control","[2]; corn, 1·10^−7% solution",8%
same,"Mass, dry, sprout","[2]; corn, 1·10^−7% solution",0.72 g/100 plantlings
same,"Mass, dry, sprout, + % to control","[2]; corn, 1·10^−7% solution",4%
same,"Mass, wet, root","[2]; corn, 1·10^−7% solution",7.75 g/100 plantlings
same,"Mass, wet, root, + % to control","[2]; corn, 1·10^−7% solution",3%
same,"Mass, wet, sprout","[2]; corn, 1·10^−7% solution",4.67 g/100 plantlings
same,"Mass, wet, sprout, + % to control","[2]; corn, 1·10^−7% solution",5%
same,"Length, root","[2]; corn, 1·10^−8% solution",4.8 cm
same,"Length, root, + % to control","[2]; corn, 1·10^−8% solution",7%
same,"Length, sprout","[2]; corn, 1·10^−8% solution",2.8 cm
same,"Length, sprout, + % to control","[2]; corn, 1·10^−8% solution",8%
same,"Mass, dry, root","[2]; corn, 1·10^−8% solution",1.24 g/100 plantlings
same,"Mass, dry, root, + % to control","[2]; corn, 1·10^−8% solution",12%
same,"Mass, dry, sprout","[2]; corn, 1·10^−8% solution",0.85 g/100 plantlings
same,"Mass, dry, sprout, + % to control","[2]; corn, 1·10^−8% solution",23%
same,"Mass, wet, root","[2]; corn, 1·10^−8% solution",8.13 g/100 plantlings
same,"Mass, wet, root, + % to control","[2]; corn, 1·10^−8% solution",8.5%
same,"Mass, wet, sprout","[2]; corn, 1·10^−8% solution",4.84 g/100 plantlings
same,"Mass, wet, sprout, + % to control","[2]; corn, 1·10^−8% solution",8.5%
same,"Length, root","[2]; corn, 1·10^−9% solution",5.2 cm
same,"Length, root, + % to control","[2]; corn, 1·10^−9% solution",15.5%
same,"Length, sprout","[2]; corn, 1·10^−9% solution",3.0 cm
same,"Length, sprout, + % to control","[2]; corn, 1·10^−9% solution",15%
same,"Mass, dry, root","[2]; corn, 1·10^−9% solution",1.26 g/100 plantlings
same,"Mass, dry, root, + % to control","[2]; corn, 1·10^−9% solution",13.5%
same,"Mass, dry, sprout","[2]; corn, 1·10^−9% solution",0.96 g/100 plantlings
same,"Mass, dry, sprout, + % to control","[2]; corn, 1·10^−9% solution",39%
same,"Mass, wet, root","[2]; corn, 1·10^−9% solution",9.18 g/100 plantlings
same,"Mass, wet, root, + % to control","[2]; corn, 1·10^−9% solution",22.5%
same,"Mass, wet, sprout","[2]; corn, 1·10^−9% solution",4.99 g/100 plantlings
same,"Mass, wet, sprout, + % to control","[2]; corn, 1·10^−9% solution",12%
same,"Length, root","[2]; corn, 1·10^−10% solution",5.4 cm
same,"Length, root, + % to control","[2]; corn, 1·10^−10% solution",20%
same,"Length, sprout","[2]; corn, 1·10^−10% solution",3.2 cm
same,"Length, sprout, + % to control","[2]; corn, 1·10^−10% solution",23%
same,"Mass, dry, root","[2]; corn, 1·10^−10% solution",1.34 g/100 plantlings
same,"Mass, dry, root, + % to control","[2]; corn, 1·10^−10% solution",21%
same,"Mass, dry, sprout","[2]; corn, 1·10^−10% solution",1.23 g/100 plantlings
same,"Mass, dry, sprout, + % to control","[2]; corn, 1·10^−10% solution",78%
same,"Mass, wet, root","[2]; corn, 1·10^−10% solution",9.82 g/100 plantlings
same,"Mass, wet, root, + % to control","[2]; corn, 1·10^−10% solution",31%
same,"Mass, wet, sprout","[2]; corn, 1·10^−10% solution",5.61 g/100 plantlings
same,"Mass, wet, sprout, + % to control","[2]; corn, 1·10^−10% solution",26%
same,"Length, root","[2]; corn, 1·10^−11% solution",5.2 cm
same,"Length, root, + % to control","[2]; corn, 1·10^−11% solution",15.5%
same,"Length, sprout","[2]; corn, 1·10^−11% solution",2.9 cm
same,"Length, sprout, + % to control","[2]; corn, 1·10^−11% solution",11.5%
same,"Mass, dry, root","[2]; corn, 1·10^−11% solution",1.30 g/100 plantlings
same,"Mass, dry, root, + % to control","[2]; corn, 1·10^−11% solution",17%
same,"Mass, dry, sprout","[2]; corn, 1·10^−11% solution",1.09 g/100 plantlings
same,"Mass, dry, sprout, + % to control","[2]; corn, 1·10^−11% solution",58%
same,"Mass, wet, root","[2]; corn, 1·10^−11% solution",9.44 g/100 plantlings
same,"Mass, wet, root, + % to control","[2]; corn, 1·10^−11% solution",26%
same,"Mass, wet, sprout","[2]; corn, 1·10^−11% solution",5.15 g/100 plantlings
same,"Mass, wet, sprout, + % to control","[2]; corn, 1·10^−11% solution",15%
same,"Length, root","[2]; corn, 1·10^−12% solution",4.6 cm
same,"Length, root, + % to control","[2]; corn, 1·10^−12% solution",2%
same,"Length, sprout","[2]; corn, 1·10^−12% solution",2.7 cm
same,"Length, sprout, + % to control","[2]; corn, 1·10^−12% solution",4%
same,"Mass, dry, root","[2]; corn, 1·10^−12% solution",1.23 g/100 plantlings
same,"Mass, dry, root, + % to control","[2]; corn, 1·10^−12% solution",11%
same,"Mass, dry, sprout","[2]; corn, 1·10^−12% solution",0.81 g/100 plantlings
same,"Mass, dry, sprout, + % to control","[2]; corn, 1·10^−12% solution",17%
same,"Mass, wet, root","[2]; corn, 1·10^−12% solution",8.65 g/100 plantlings
same,"Mass, wet, root, + % to control","[2]; corn, 1·10^−12% solution",15%
same,"Mass, wet, sprout","[2]; corn, 1·10^−12% solution",4.73 g/100 plantlings
same,"Mass, wet, sprout, + % to control","[2]; corn, 1·10^−12% solution",6%

# From patent US10781224B2, “Bis(oxymethyl)phosphinic acid and biogenic metal salts thereof as regulators of plant growth and development” (priority 2016, dated 2020)
